{"source": "paper PMC4843824", "about": "(Nature chemistry, 2016)", "assay_in_all_cases": "differential UV-vis titration", "key": {"TxtE [1]": {"target": "T1, TxtE (Streptomyces scabiei, UniProt C9ZDC6, H176F)", "T1 sequence (C9ZDC6 1-406 H176F)": "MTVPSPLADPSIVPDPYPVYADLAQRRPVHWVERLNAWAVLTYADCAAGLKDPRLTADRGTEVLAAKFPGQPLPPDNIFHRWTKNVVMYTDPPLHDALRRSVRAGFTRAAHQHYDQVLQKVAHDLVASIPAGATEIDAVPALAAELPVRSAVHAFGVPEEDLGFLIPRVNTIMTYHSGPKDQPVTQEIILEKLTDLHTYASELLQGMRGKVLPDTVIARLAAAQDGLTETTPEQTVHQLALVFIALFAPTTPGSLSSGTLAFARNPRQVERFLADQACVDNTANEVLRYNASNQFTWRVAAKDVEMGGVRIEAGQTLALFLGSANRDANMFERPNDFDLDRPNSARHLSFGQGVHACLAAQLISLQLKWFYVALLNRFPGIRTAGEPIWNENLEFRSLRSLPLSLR", "type": "binding"}, "TxtE [2]": {"target": "T2, TxtE (Streptomyces scabiei, UniProt C9ZDC6, H176Y)", "T2 sequence (C9ZDC6 1-406 H176Y)": "T1 sequence (C9ZDC6 1-406 H176F)", "type": "binding"}, "Virginiae_TxtE": {"target": "Virginiae_TxtE", "type": "binding, Streptomyces virginiae", "conditions": "read-out: Kd (μM)^b; 25 mM Tris pH 8"}, "TxtE [3]": {"target": "T3, TxtE (Streptomyces scabiei, UniProt C9ZDC6, H176W)", "T3 sequence (C9ZDC6 1-406 H176W)": "T1 sequence (C9ZDC6 1-406 H176F)", "type": "binding"}}, "data": [{"smiles": "N[C@@H](Cc1c[nH]c2ccccc12)C(=O)O", "note": "[L-tryptophan]", "values": [{"measurement": "Kd", "setting": "TxtE [1]", "value": "2.6 ± 0.1", "unit": "µM"}, {"measurement": "Kd", "setting": "TxtE [2]", "value": "4.9 ± 0.3", "unit": "µM"}, {"measurement": "Kd", "setting": "Virginiae_TxtE", "value": "140 ± 6", "unit": "µM"}, {"measurement": "Kd", "setting": "TxtE [3]", "value": "1.3 ± 0.1", "unit": "µM"}]}]}
